Data published in patent US11883442B1, “Composition for treating irritable bowel syndrome” (KING FAISAL UNIVERSITY, priority 2023, dated 2024).

System: TNF-α
Test: cytokine (TNF-α) levels in the colonic homogenate, TNBS-induced colitis model
Format: in vivo, C57B16j mice
Details: at a pH value of 5.2; FIG. 2B
Experimental: Colitis was induced in C57B16j mice by 2,4,6-trinitrobenzene sulfonic acid (TNBS). TNBS induction was made at 0 and 4 days. BA 10^8/mL BA, EF 10^9/mL EF, and calciferol at […] was administered as oral gavage on alternative days from day 0 to day 14.
A comparative evaluation of cytokine (TNF-α) levels in the colonic homogenate of different mice groups from the TNBS-induced colitis model was performed. TNF-α was quantified after 14 days of the start of the experiment. All data were collected from three individual experiments and pooled and expressed as mean ±SD (p<0.05). The effect of BA and EF loads on the pro-inflammatory marker (TNF-α) in TNBS-induced colitis mice is illustrated in FIGS. 1A-1B (values are expressed in pg/mL).
Disease index and bleeding indicated degree of recovery of the disease in the group treated with the composition. […] TNF-α was quantified after 14 days of the experiment. The values are expressed in pg/mL. All data were collected from three individual experiments and pooled and expressed as mean ±SD (p<0.05). *p<0.05 represents significance.

Structure (SMILES): C=C1CC[C@H](O)C/C1=C/C=C1\CCC[C@]2(C)[C@@H]([C@H](C)/C=C/[C@H](C)C(C)C)CC[C@@H]12 [calciferol]
- most effective concentration of calciferol in the composition: 5 µM
